{
  "source": "patent US20220267380A1",
  "about": "“Glycopeptides Increasing Lipid Synthesis” (TFCHEM, priority 2019, published 2022)",
  "system": "normal human dermal fibroblasts (NHDF)",
  "assay": "Gene expression in NHDF, full transcriptome analysis with Affymetrix U219 microarray",
  "assay_type": "cell-based",
  "settings": "NHDF, 10 mg/ml, 24 h",
  "key": {"[1]": {"settings": "relative expression adjusted to detection limit (<20)"}},
  "data": [
    {"molecule": "N[C@@H](CCCCNCC(F)(F)[C@]1(O)O[C@H](CO)[C@H](O)[C@H](O)[C@H]1O)C(=O)O", "note": "[Compound 3]", "values": [
      {"measurement": "Fold change, FADS1", "setting": "vs control, Affymetrix probe set 11752670_a_at", "result": 3.55},
      {"measurement": "Fold change, TPP1", "setting": "vs control, Affymetrix probe set 11753248_a_at", "result": 2.05},
      {"measurement": "Fold change, GBA///GBAP1", "setting": "vs control, Affymetrix probe set 11753439_a_at", "result": 2.35},
      {"measurement": "Fold change, GBA", "setting": "vs control, Affymetrix probe set 11753440_x_at", "result": 2.30},
      {"measurement": "Fold change, GBA///GBAP1", "setting": "vs control, Affymetrix probe set 11754819_x_at", "result": 2.08},
      {"measurement": "Fold change, LPCAT3", "setting": "vs control, Affymetrix probe set 11755123_x_at", "result": 2.13},
      {"measurement": "Fold change, FADS1", "setting": "vs control, Affymetrix probe set 11755251_x_at", "result": 3.75},
      {"measurement": "Fold change, LPCAT3", "setting": "vs control, Affymetrix probe set 11757008_a_at", "result": 2.39},
      {"measurement": "Fold change, TPP1", "setting": "vs control, Affymetrix probe set 11757469_s_at", "result": 2.14},
      {"measurement": "Fold change, HSD17B14", "setting": "vs control, Affymetrix probe set 11757575_x_at", "result": 2.92},
      {"measurement": "Fold change, TM7SF2", "setting": "vs control, Affymetrix probe set 11762755_x_at", "result": 2.10},
      {"measurement": "REadj2, ACOT1///ACOT2", "setting": "[1]", "result": 462.96},
      {"measurement": "REadj2, APOD", "setting": "[1]", "result": 154.78},
      {"measurement": "REadj2, DHCR7", "setting": "[1]", "result": 1097.58},
      {"measurement": "REadj2, FADS2", "setting": "[1]", "result": 263.98},
      {"measurement": "REadj2, GBAP1", "setting": "[1]", "result": 186.37},
      {"measurement": "REadj2, HACD1", "setting": "[1]", "result": 674.65},
      {"measurement": "REadj2, HMGCS1", "setting": "[1]", "result": 1170.64},
      {"measurement": "REadj2, LRP8", "setting": "[1]", "result": 125.76},
      {"measurement": "REadj2, MVD", "setting": "[1]", "result": 534.91},
      {"measurement": "REadj2, NCOR1", "setting": "[1]", "result": 68.44},
      {"measurement": "REadj2, NEU1", "setting": "[1]", "result": 722.33},
      {"measurement": "REadj2, NPC1", "setting": "[1]", "result": 154.34},
      {"measurement": "REadj2, PHLDB2", "setting": "[1]", "result": 66.17},
      {"measurement": "REadj2, PHYH", "setting": "[1]", "result": 813.79},
      {"measurement": "REadj2, PLA2G15", "setting": "[1]", "result": 82.36},
      {"measurement": "REadj2, PLA2G16", "setting": "[1]", "result": 222.24},
      {"measurement": "REadj2, PRKAB2", "setting": "[1]", "result": 21.07},
      {"measurement": "REadj2, PTGDS", "setting": "[1]", "result": 1080.74},
      {"measurement": "REadj2, SOAT1", "setting": "[1]", "result": 393.50},
      {"measurement": "REadj2, SPHK1", "setting": "[1]", "result": 195.74},
      {"measurement": "REadj2, SREBF1", "setting": "[1]", "result": 312.15},
      {"measurement": "REadj2, TXNRD1", "setting": "[1]", "result": 1483.80},
      {"measurement": "REadj2, VAC14", "setting": "[1]", "result": 105.84},
      {"measurement": "REadj2, SCD", "setting": "relative expression adjusted to detection limit (<20), Affymetrix probe set 11715561_s_at", "result": 634.95},
      {"measurement": "REadj2, SCD", "setting": "relative expression adjusted to detection limit (<20), Affymetrix probe set 11715562_x_at", "result": 722.36},
      {"measurement": "REadj2, SCD", "setting": "relative expression adjusted to detection limit (<20), Affymetrix probe set 11715563_s_at", "result": 558.17},
      {"measurement": "REadj2, G6PD", "setting": "relative expression adjusted to detection limit (<20), Affymetrix probe set 11716292_a_at", "result": 348.08},
      {"measurement": "REadj2, G6PD", "setting": "relative expression adjusted to detection limit (<20), Affymetrix probe set 11716293_x_at", "result": 239.53},
      {"measurement": "REadj2, INSIG1", "setting": "relative expression adjusted to detection limit (<20), Affymetrix probe set 11716338_a_at", "result": 1101.68},
      {"measurement": "REadj2, INSIG1", "setting": "relative expression adjusted to detection limit (<20), Affymetrix probe set 11716339_a_at", "result": 1249.89},
      {"measurement": "REadj2, PPT1", "setting": "relative expression adjusted to detection limit (<20), Affymetrix probe set 11716533_a_at", "result": 249.91},
      {"measurement": "REadj2, EBP", "setting": "relative expression adjusted to detection limit (<20), Affymetrix probe set 11717859_a_at", "result": 1025.83},
      {"measurement": "REadj2, HSD17B14", "setting": "relative expression adjusted to detection limit (<20), Affymetrix probe set 11720588_a_at", "result": 154.64},
      {"measurement": "REadj2, SERINC2", "setting": "relative expression adjusted to detection limit (<20), Affymetrix probe set 11721046_a_at", "result": 462.86},
      {"measurement": "REadj2, ME1", "setting": "relative expression adjusted to detection limit (<20), Affymetrix probe set 11726265_at", "result": 1130.68},
      {"measurement": "REadj2, CHKA", "setting": "relative expression adjusted to detection limit (<20), Affymetrix probe set 11736285_a_at", "result": 137.49},
      {"measurement": "REadj2, CHKA", "setting": "relative expression adjusted to detection limit (<20), Affymetrix probe set 11736286_a_at", "result": 138.86},
      {"measurement": "REadj2, ASAH1", "setting": "relative expression adjusted to detection limit (<20), Affymetrix probe set 11740582_a_at", "result": 1292.95},
      {"measurement": "REadj2, PPT1", "setting": "relative expression adjusted to detection limit (<20), Affymetrix probe set 11742107_a_at", "result": 289.70},
      {"measurement": "REadj2, ASAH1", "setting": "relative expression adjusted to detection limit (<20), Affymetrix probe set 11743547_a_at", "result": 1038.22},
      {"measurement": "REadj2, PCYT2", "setting": "relative expression adjusted to detection limit (<20), Affymetrix probe set 11744044_s_at", "result": 239.50},
      {"measurement": "REadj2, FADS1", "setting": "relative expression adjusted to detection limit (<20), Affymetrix probe set 11745459_a_at", "result": 1891.83},
      {"measurement": "REadj2, LDLR", "setting": "relative expression adjusted to detection limit (<20), Affymetrix probe set 11746974_a_at", "result": 357.86},
      {"measurement": "REadj2, PCYT2", "setting": "relative expression adjusted to detection limit (<20), Affymetrix probe set 11747322_s_at", "result": 216.32},
      {"measurement": "REadj2, LDLR", "setting": "relative expression adjusted to detection limit (<20), Affymetrix probe set 11748045_x_at", "result": 380.34},
      {"measurement": "REadj2, SERINC2", "setting": "relative expression adjusted to detection limit (<20), Affymetrix probe set 11748053_x_at", "result": 342.33},
      {"measurement": "REadj2, TM7SF2", "setting": "relative expression adjusted to detection limit (<20), Affymetrix probe set 11748279_s_at", "result": 91.54},
      {"measurement": "REadj2, EBP", "setting": "relative expression adjusted to detection limit (<20), Affymetrix probe set 11749332_x_at", "result": 907.86},
      {"measurement": "REadj2, ABHD4", "setting": "relative expression adjusted to detection limit (<20), Affymetrix probe set 11749343_a_at", "result": 66.31},
      {"measurement": "REadj2, ABHD4", "setting": "relative expression adjusted to detection limit (<20), Affymetrix probe set 11749376_a_at", "result": 69.48},
      {"measurement": "REadj2, ME1", "setting": "relative expression adjusted to detection limit (<20), Affymetrix probe set 11750913_a_at", "result": 861.69},
      {"measurement": "REadj2, GBA", "setting": "relative expression adjusted to detection limit (<20), Affymetrix probe set 11750975_x_at", "result": 250.68},
      {"measurement": "REadj2, GBA", "setting": "relative expression adjusted to detection limit (<20), Affymetrix probe set 11751086_x_at", "result": 255.53},
      {"measurement": "REadj2, DHCR24", "setting": "relative expression adjusted to detection limit (<20), Affymetrix probe set 11751337_a_at", "result": 191.39},
      {"measurement": "REadj2, DHCR24", "setting": "relative expression adjusted to detection limit (<20), Affymetrix probe set 11751338_x_at", "result": 364.97},
      {"measurement": "REadj2, G6PD", "setting": "relative expression adjusted to detection limit (<20), Affymetrix probe set 11752486_a_at", "result": 224.35},
      {"measurement": "REadj2, FADS1", "setting": "relative expression adjusted to detection limit (<20), Affymetrix probe set 11752670_a_at", "result": 3012.88},
      {"measurement": "REadj2, GBA", "setting": "relative expression adjusted to detection limit (<20), Affymetrix probe set 11753440_x_at", "result": 139.49},
      {"measurement": "REadj2, FADS1", "setting": "relative expression adjusted to detection limit (<20), Affymetrix probe set 11755251_x_at", "result": 1908.34},
      {"measurement": "REadj2, HSD17B14", "setting": "relative expression adjusted to detection limit (<20), Affymetrix probe set 11757575_x_at", "result": 89.08},
      {"measurement": "REadj2, TM7SF2", "setting": "relative expression adjusted to detection limit (<20), Affymetrix probe set 11762755_x_at", "result": 61.24}
    ]}
  ]
}
